Series [1] deals with T1, purified recombinant rat CSPα (Rattus norvegicus, UniProt P60905).
T1 construct: gene Dnajc5; purified recombinant soluble CSPα
T1 sequence (P60905 1-198): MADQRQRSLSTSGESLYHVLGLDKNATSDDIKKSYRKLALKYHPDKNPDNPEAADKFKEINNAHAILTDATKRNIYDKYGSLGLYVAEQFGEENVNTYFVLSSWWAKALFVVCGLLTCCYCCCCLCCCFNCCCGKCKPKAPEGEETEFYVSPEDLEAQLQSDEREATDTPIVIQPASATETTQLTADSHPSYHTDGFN
As to the kind of experiment: SDS-resistant dimerization of purified protein, SDS-PAGE. The settings on record: 24 h incubation; concentration series. Format: binding.

A further series deals with T2, c-myc-CSPα (Rattus norvegicus, UniProt P60905).
T2 construct: gene Dnajc5; full-length CSPα1-198, c-myc tag kept; transient expression in CAD mouse neuroblastoma cells; palmitoylated monomer ~34 kDa, dimer ~72 kDa
T2 sequence (P60905 1-198): T1 sequence (P60905 1-198)
As to the kind of experiment: CSPα dimer in transfected CAD cells, anti-myc Western blot. The settings on record: 24 h treatment of intact cells, cysteine string region. Format: cell-based. Background: Immunoblotting shows a protein as a band on a membrane.

Series [2] deals with the molecule itself. As to the kind of experiment: SDS-resistant dimer on SDS-PAGE with Western blot; lysates of transiently transfected CAD cells, control or treated 24 h with quercetin (up to 200 µM), EGCG or other agents; 30-40 µg protein in SDS sample buffer at 37°C or 80°C; dimer at ∼72 kDa.

We go through 2 molecules from publication PMC2883571, “Quercetin Targets Cysteine String Protein (CSPα) and Impairs Synaptic Transmission” (PLoS ONE, 2010).

As for `O=c1c(O)c(-c2ccc(O)c(O)c2)oc2cc(O)cc(O)c12` [quercetin, 3,3′,4′,5,7-pentapentahydroxyflavone], the CSPα dimer formation result in series [1] is listed as “quercetin triggered dimerization of recombinant CSPα in a concentration dependent manner”. Further, the “fold CSPα dimer vs control at 100 μM” value at c-myc-CSPα is on record as 4 fold.

B1: c-myc tagged rat CSPα_(1–198) (cysteine string protein) (natural protein, UniProt P60905 1-198, looked up)
chain: T1 sequence (P60905 1-198)
modifications: both unmodified and palmitoylated (extensive fatty acylation) species seen
notes: cysteine string protein alpha (CSPα), rat, residues 1-198; also called c-myc-CSPα; source: CAD mouse neuroblastoma cells, transiently transfected, in lysate
With B1, the “fold dimer with 100 µM quercetin at 24 hrs over control” value in series [2] was 4 fold.
